Values of other authors in patent US20260007632A1, “FORMULATIONS OF DOCETAXEL” (Zhuhai Beihai Biotech Co., Ltd., priority 2020, published 2026).

Assays:
microtubule = conditions: relative to paclitaxel

| SMILES | volume of ethanol required to dissolve 1 g (at 25° C.) | volume of water required to dissolve 1 g (at 25° C.) | solubility in water | potency in inhibiting microtubule depolymerization (microtubule) |
| --- | --- | --- | --- | --- |
| CC(=O)Oc1ccccc1C(=O)O [aspirin] | 5 mL | 300 mL |  |  |
| CC(=O)O[C@@]12CO[C@@H]1C[C@H](O)[C@@]1(C)C(=O)[C@H](O)C3=C(C)[C@@H](OC(=O)[C@H](O)[C@@H](NC(=O)OC(C)(C)C)c4ccccc4)C[C@@](O)([C@@H](OC(=O)c4ccccc4)[C@H]21)C3(C)C [docetaxel] |  |  | very poor water solubility | about twice as potent as paclitaxel |
